Values of other authors, collected in patent US8680143B2, “Orally active curcuminoid compounds” (Laila Pharmaceuticals Pvt. Ltd., priority 2008, dated 2014).

O=C(C=Cc1ccc(O)c(O)c1)CC(=O)C=Cc1ccc(O)c(O)c1 [Bis-O-demethylcurcumin, 1,7-bis(3,4-dihydroxyphenyl)-1,6-heptadiene-3,5-dione]
oral bis-O-demethylcurcumin that enters the plasma: less than 1%
